Values of other authors in US6933291B2, “Cholesterol lowering supplement” (N.V. Nutricia, priority 2000, dated 2005).

Legend:
[1] = case reports from the literature
[2] = rats
HMG-CoA reductase = conditions: rats given cholesterol

For CC[C@H](C)C(=O)O[C@H]1C[C@@H](C)C=C2C=C[C@H](C)[C@H](CC[C@@H]3C[C@@H](O)CC(=O)O3)[C@H]21 [Lovastatin, lovastatin], the “adverse effect reported in patients” value [1] is listed as “liver failure”.
In the case of CC[C@H](CC[C@@H](C)[C@H]1CC[C@H]2[C@@H]3CC=C4C[C@@H](O)CC[C@]4(C)[C@H]3CC[C@]12C)C(C)C [beta-sitosterol], the “cholesterol absorption (effect in words)” value [2] is listed as “inhibited” and the cholesterol synthesis ([2]; increased from 20.0 mg/day) is listed as 28.8 mg/day.
For CC(C)CCC[C@@H](C)[C@H]1CC[C@H]2[C@@H]3CC=C4C[C@@H](O)CC[C@]4(C)[C@H]3CC[C@]12C [cholesterol], the “conversion of cholesterol to bile acids” value ([2]; enhanced from 13.7 mg/day on feeding cholesterol) is given as 27.3 mg/day, the cholesterol absorption ([2]; increased from 1.2 mg/day on feeding cholesterol) is given as 70 mg/day and the “HMG-CoA reductase activity inhibited” value (HMG-CoA reductase) is given as 80%.
